Test results as given in patent US11479802B2, “Assays for screening activity of modulators of members of the hydroxy steroid (17-beta) dehydrogenase (HSD17B) family” (Regeneron Pharmaceuticals, Inc., priority 2017, dated 2022).

Target: T1, human HSD17B13 (Homo sapiens, UniProt Q7Z5P4)
T1 sequence (Q7Z5P4 20-300): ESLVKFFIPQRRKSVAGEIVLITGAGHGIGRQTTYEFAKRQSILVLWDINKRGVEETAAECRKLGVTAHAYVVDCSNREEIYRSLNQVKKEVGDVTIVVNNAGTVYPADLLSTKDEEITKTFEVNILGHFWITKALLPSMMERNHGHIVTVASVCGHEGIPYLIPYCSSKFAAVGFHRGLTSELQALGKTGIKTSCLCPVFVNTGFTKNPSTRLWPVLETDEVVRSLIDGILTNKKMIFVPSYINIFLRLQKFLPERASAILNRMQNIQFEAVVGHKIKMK
Assay: Substrate screening of steroid and bioactive lipid libraries against purified recombinant HSD17B13 (NADH-linked luciferase assay)
Format: biochemical
Settings: for HSD17B13 Enzymatic Activity Relative Light Units: 500 μM NAD+, 100 ng enzyme, 3 hours at 23° C.; for HSD17B13 Enzymatic Activity Percent Estradiol Control: normalized to 50 μM estradiol after subtraction of 5% DMSO
Protocol: To understand the functional consequences of premature truncation of the HSD17B13 protein due to rs72613567:TA (the associated variant, rs72613567, is an insertion of an adenine adjacent to the donor splice site of exon six (TA allele)), the enzymatic activity of isoforms A and D was evaluated in vitro using recombinant protein and nicotinamide […] dinucleotide as cofactor. Reactions were performed in a final volume of 40 μl of assay buffer (0.2 M Tris-HCl, pH 7.5) which contained 500 μM NAD^+, 5 μM bioactive lipid or 50 μM steroid (all in a final concentration of 5% DMSO), and 100 ng of recombinant human HSD17B13. Reactions were incubated for 3 hours, at 23° C., after which an equal volume detection reagent was added. Following a 1 hour incubation at 23° C., the relative light units (RLUs) were measured on an Envision Plate Reader (Perkin Elmer). Raw RLU values were normalized as percent of control (50 μM estradiol) following subtraction of negative control (5% DMSO) using the following formula: Percent of control (POC)=100×(Sample (RLU)−Negative CTRLaverage)/(Positive CTRLaverage−Negative CTRLaverage).

[1] = Bioactive Lipid Library, 5 μM bioactive lipid (Estradiol Control 50 μM)
[2] = Bioactive Lipid Library, 5 μM bioactive lipid

Structure (SMILES): CCCCCC(O)C=CC1OC(=O)CC(O)C1CC=CCCCC(=O)O (centres unmarked) [11-dehydro Thromboxane B2]
- HSD17B13 Enzymatic Activity Relative Light Units [1]: 349160 RLU
- HSD17B13 Enzymatic Activity Percent Estradiol Control [2]: 5.22%

Structure (SMILES): CC/C=C\C[C@H](O)/C=C/[C@H]1OC(=O)C[C@H](O)[C@@H]1C/C=C\CCCC(=O)O [11-dehydro Thromboxane B3]
- HSD17B13 Enzymatic Activity Relative Light Units [1]: 322480 RLU
- HSD17B13 Enzymatic Activity Percent Estradiol Control [2]: 3.11%

Structure (SMILES): CCCCCC(O)C=CC1OC(=O)CC(O)C1CC=CCC(=O)O (centres unmarked) [11-dehydro-2,3-dinor Thromboxane B2]
- HSD17B13 Enzymatic Activity Relative Light Units [1]: 183120 RLU
- HSD17B13 Enzymatic Activity Percent Estradiol Control [2]: −7.90%

Structure (SMILES): C[C@]12CC[C@@H](O)C[C@@H]1CC[C@@H]1[C@@H]2[C@@H](O)C[C@]2(C)C(=O)CC[C@@H]12 [11beta-Hydroxyandrosterone]
- HSD17B13 Enzymatic Activity Relative Light Units (Steroid Library, 50 μM steroid): 224720 RLU
- HSD17B13 Enzymatic Activity Percent Estradiol Control (Steroid Library, 50 μM steroid): 1.12%

Structure (SMILES): CCCCCC(=O)CC[C@@H]1[C@@H](C/C=C\CCCC(=O)O)[C@@H](O)C[C@@H]1O [11β-13,14-dihydro-15-keto Prostaglandin F2α]
- HSD17B13 Enzymatic Activity Relative Light Units [1]: 310000 RLU
- HSD17B13 Enzymatic Activity Percent Estradiol Control [2]: 2.13%

Structure (SMILES): CCCCC(C)(O)C/C=C/[C@H]1[C@@H](O)CC(=O)[C@@H]1CCCCCCC(=O)OC (stereo partly drawn) [11β-Misoprostol]
- HSD17B13 Enzymatic Activity Relative Light Units [1]: 331200 RLU
- HSD17B13 Enzymatic Activity Percent Estradiol Control [2]: 3.80%

Structure (SMILES): CCCCC[C@H](O)/C=C/[C@H]1[C@@H](O)CC(=O)[C@@H]1C/C=C\CCCC(=O)O [11β-Prostaglandin E2]
- HSD17B13 Enzymatic Activity Relative Light Units [1]: 354840 RLU
- HSD17B13 Enzymatic Activity Percent Estradiol Control [2]: 5.67%

Structure (SMILES): CCCCC/C=C\C[C@@H](O)/C=C/C=C\C/C=C\CCCC(=O)O [12(R)-HETE]
- HSD17B13 Enzymatic Activity Relative Light Units [1]: 1932320 RLU
- HSD17B13 Enzymatic Activity Percent Estradiol Control [2]: 122.36%

Structure (SMILES): CCCCC/C=C\C[C@@H](/C=C/C=C\C/C=C\CCCC(=O)O)OO [12(S)-HpETE]
- HSD17B13 Enzymatic Activity Relative Light Units [1]: 199760 RLU
- HSD17B13 Enzymatic Activity Percent Estradiol Control [2]: −6.47%

Structure (SMILES): CCCCCCCC[C@@H](O)C=CC=CC=C[C@@H](O)CCCC(=O)O [12-epi Leukotriene B3]
- HSD17B13 Enzymatic Activity Relative Light Units [1]: 481880 RLU
- HSD17B13 Enzymatic Activity Percent Estradiol Control [2]: 15.71%

Structure (SMILES): CCCCC/C=C\C[C@H](O)/C=C/C=C/C=C\[C@@H](O)CCCC(=O)O [12-epi Leukotriene B4]
- HSD17B13 Enzymatic Activity Relative Light Units [1]: 389240 RLU
- HSD17B13 Enzymatic Activity Percent Estradiol Control [2]: 8.39%

Structure (SMILES): CCCCC[C@@H](O)/C=C/C=C\CCCCCCCC(=O)O [13(R)-HODE]
- HSD17B13 Enzymatic Activity Relative Light Units [1]: 1105960 RLU
- HSD17B13 Enzymatic Activity Percent Estradiol Control [2]: 60.91%

Structure (SMILES): CCCCC[C@H](O)/C=C/C=C\CCCCCCCC(=O)O [13(S)-HODE]
- HSD17B13 Enzymatic Activity Relative Light Units [1]: 792800 RLU
- HSD17B13 Enzymatic Activity Percent Estradiol Control [2]: 37.62%

Structure (SMILES): CCCCC[C@H](O)/C=C/C=C\C/C=C\CCCCC(=O)O [13(S)-HOTrE(γ)]
- HSD17B13 Enzymatic Activity Relative Light Units [1]: 458840 RLU
- HSD17B13 Enzymatic Activity Percent Estradiol Control [2]: 12.79%

Structure (SMILES): CC/C=C\C[C@H](O)/C=C/C=C\CCCCCCCC(=O)O [13(S)-HOTrE]
- HSD17B13 Enzymatic Activity Relative Light Units [1]: 528240 RLU
- HSD17B13 Enzymatic Activity Percent Estradiol Control [2]: 17.95%

Structure (SMILES): CCCCC[C@@H](/C=C/C=C\CCCCCCCC(=O)O)OO [13(S)-HpODE]
- HSD17B13 Enzymatic Activity Relative Light Units [1]: 183040 RLU
- HSD17B13 Enzymatic Activity Percent Estradiol Control [2]: −7.72%

Structure (SMILES): CCCCC[C@@H](/C=C/C=C\C/C=C\CCCCC(=O)O)OO [13(S)-HpOTrE(γ)]
- HSD17B13 Enzymatic Activity Relative Light Units [1]: 268840 RLU
- HSD17B13 Enzymatic Activity Percent Estradiol Control [2]: −1.34%

Structure (SMILES): CC/C=C\C[C@@H](/C=C/C=C\CCCCCCCC(=O)O)OO [13(S)-HpOTrE]
- HSD17B13 Enzymatic Activity Relative Light Units [1]: 35320 RLU
- HSD17B13 Enzymatic Activity Percent Estradiol Control [2]: −18.70%

Structure (SMILES): O=C(O)CCCC=C1CC2CC(O)C(C#CC(O)C3CCCCC3)C2C1 (centres unmarked) [13,14-dehydro-15-cyclohexyl Carbaprostacyclin]
- HSD17B13 Enzymatic Activity Relative Light Units [1]: 356360 RLU
- HSD17B13 Enzymatic Activity Percent Estradiol Control [2]: 5.79%

Structure (SMILES): C[C@@H](O)CCC[C@H](O)CC[C@H]1[C@H](O)CC(=O)[C@@H]1CCCCCCC(=O)O [13,14-dihydro-19(R)-hydroxy Prostaglandin E1]
- HSD17B13 Enzymatic Activity Relative Light Units [1]: 337040 RLU
- HSD17B13 Enzymatic Activity Percent Estradiol Control [2]: 4.26%

Structure (SMILES): CC/C=C\C[C@H]1C(=O)C=C[C@@H]1CCCCCCCC(=O)O [13-epi-12-oxo Phytodienoic Acid]
- HSD17B13 Enzymatic Activity Relative Light Units [1]: 320640 RLU
- HSD17B13 Enzymatic Activity Percent Estradiol Control [2]: 2.97%

Structure (SMILES): CCCCC[C@H]1O[C@H]1C/C=C\C/C=C\C/C=C\CCCC(=O)NCCO [14(15)-EET Ethanolamide]
- HSD17B13 Enzymatic Activity Relative Light Units [1]: 428760 RLU
- HSD17B13 Enzymatic Activity Percent Estradiol Control [2]: 7.83%
